The text below walks through data of US20130143968A1, “Methods and compositions for the treatment of diabetes and related symtoms” (Emmaus Medical, Inc., priority 2011, published 2013).

A short description of assay [1]: Triglyceride lowering in a person ingesting L-glutamine. It is filed as in vivo. To be noted: one person, baseline 500 mg/dL; 30 g per day as an aqueous solution, ingested; after three months. As to the method: The person ingested 30 g of L-glutamine per day as an aqueous solution. After three months of L-glutamine administration, the person's triglyceride blood level was measured at 150 mg/dL.

Assay [2] can be described thus: HA1C lowering in a person ingesting L-glutamine. To be noted: one person, baseline 6.9%; 30 g per day as an aqueous solution, ingested; after three months. Format: in vivo. As to the method: The person ingested 30 g of L-glutamine per day as an aqueous solution. After three months of L-glutamine administration, the person's Hb A1C level was measured at 6.1%.

Regarding `NC(=O)CC[C@H](N)C(=O)O` [L-glutamine], in assay [1], the triglyceride blood level stood at 150 mg/dL. For the same compound, the “glycolated hemoglobin level (Hb A1C level)” value in assay [2] came to 6.1%.
